Experimental data taken from patent US12661397B2, “Adjuvant comprising a glycoarchaeol and an immunostimulant” (priority 2021, dated 2026).

Experiments:
[1] = tested on: SARS-CoV-2 spike protein (SmT1); assay: SARS-CoV-2 Spike-specific IgG ELISA in hamsters; type: in vivo, Syrian Golden hamsters; conditions: 3 μg SmT1 i.m. Day 0 only, serum Day 34 (FIG. 15 lower)
OVA = assay: Anti-OVA antibody ELISA of mouse serum; type: in vivo; conditions: OVA-immunized mice, Day 28; 100 = limit of detection (FIG. 5)
Text: (§1) Serum of mice immunized with OVA antigen alone (None) or formulated with SLA archaeosomes, other adjuvants (Poly(I:C), Resiquimod (R848), CpG, MPLA, QS-21, Pam3CSK4) or SLA in combination with other adjuvants was collected on Day 28 (7 days post 2nd immunization by intramuscular route) and analyzed for antigen-specific IgG antibodies by ELISA. Grouped data is presented as geometric mean titer+95% Confidence Interval (n=10/group).
as §1, with “(none)” for “(None)”, “immunization)” for “immunization by intramuscular route)”, “IgG2c” for “IgG”
The levels of anti-OVA or anti-HBsAg antibodies (Abs) in mouse serum were quantified by ELISA using 96-well high-binding ELISA plates (Thermo Fisher Scientific, Waltham, MA, USA) coated overnight at room temperature (RT) with 100 μL of 10 μg/mL OVA (Sigma-Aldrich, St. Louis, MO, USA) in PBS or 1 μg/mL HBsAg (Fitzgerald Industries International) in 16 mM sodium carbonate/34 mM sodium bicarbonate buffer, pH 9.6 (Sigma-Aldrich). […] Bound IgG Abs were detected spectrophotometrically at 450 nm. […]

Compound | Anti-spike IgG GMT, prime only regimen [1] | anti-OVA IgG2c titer (OVA)
CC(C)CCCC(C)CCCC(C)CCCC(C)CCOC[C@@H](CO[C@@H]1O[C@H](CO)[C@@H](O[C@@H]2O[C@H](COS(=O)(=O)O)[C@H](O)[C@H](O)[C@H]2O)[C@H](O)[C@H]1O)OCCC(C)CCCC(C)CCCC(C)CCCC(C)C (stereo partly drawn) [SLA, 6′-sulfate-β-D-Galp-(1,4)-β-D-Glcp-(1,1)-archaeol] | 6,050 | 100
polyinosinic-polycytidylic acid [Poly(I:C), reference compound] | – | 5420
